Assay [1] relates to C57BL/6J mice. In words: Cocaine-induced locomotor activity, co-injection, C57BL/6J mice. In kind it is in vivo. As to conditions: 60 min. Here is the method: (§1) Experimentally naïve mice, of at least 12 weeks of age, were used for all behavioral experiments. The mice were randomly assigned to treatment or control groups, balanced by sex and weight. Locomotor activity was assessed using the automated locomotor analysis monitors (Omnitech Electronics, Columbus, OH, United States). The apparatus included four open field monitors. Each Open Field monitor consisted of sets of 16 light beams arrayed in the horizontal X and Y axes. The hardware detected beams broken by the animal, which allowed the software to determine the location of the mouse in the cage. Total distance covered by mice was used to characterize locomotor activity of the animals. The monitors were divided into four compartments (20 cm × 20 cm). Animals were tested individually for defined periods with 5-min intervals. The mice were first weighed and then placed into the apparatus, allowing for 30 min habituation. Following the habituation, the mice were removed from the al apparatus and injected with drugs (see below for administration) or vehicle and returned immediately to the locomotor chamber. The locomotor activity was then measured for additional 1 h. After the experiments, the animals were euthanized by cervical dislocation.
All drug solutions were prepared freshly on the day of the experiment and injected i.p. at the volume of 10 ml/kg. […] Amphetamine was dissolved in 0.9% saline at a concentration of 0.2 mg/mL.
Since compound 22 enhanced amphetamine-induced locomotor response, we assessed if compound 22 could also enhance cocaine-induced locomotion in WT C57BL/6J mice (Figure 3).
The locomotor activity was assessed for 60 min after the injection. […] Data are means ± SEM; N = 7–9. One way ANOVA was performed [F(3,28) = 7.138, p = 0.001] followed by Dunnett’s post hoc analyses (^∗p < 0.05, ^∗∗∗p < 0.001).

Assay [2] deals with C57BL/6J mice. In words: Stereotypic counts, co-injection with cocaine, C57BL/6J mice. In kind it is in vivo. The following applies: 5 and 25 mg/kg co-injected with cocaine 10 mg/kg; sum over 60 min.
Assay [3] has as its system WT littermates (C57BL/6J × 129S2/Sv). In words: Amphetamine-induced locomotor activity, co-injection, WT littermates. In kind it is in vivo, mice. As to conditions: 5 mg/kg co-injected with amphetamine 2 mg/kg, p = 0.049. As for the experimental part: The Taarl^-/- (TAAR1-KO) mice were obtained from Lundbeck ([Wolinsky et al., 2007]). All wild type (WT) and TAAR1-KO mice used for experiments were generated from TAAR1-KO heterozygous mice in a C57BL/6J x 129S1/Sv mixed background.
as §1, with “chamber.” for “chamber. The locomotor activity was then measured for additional 1 h. After the experiments, the animals were euthanized by cervical dislocation.”

In assay [4] the test system is TAAR1-KO mice. In words: Stereotypic counts, co-injection with amphetamine, TAAR1-KO mice. As to conditions: only 15 mg/kg, co-injected with amphetamine 2 mg/kg. In kind it is in vivo. Here is the method:
as §1, with “Following the habituation, the mice were removed from the al apparatus and injected with drugs (see below for administration) or vehicle and returned immediately to the locomotor chamber.” left out, “After the experiments, the animals were euthanized by cervical dislocation.” left out
(§2) Supplementary file Image_2.TIF: FIGURE S2 In vivo studies with TAAR1-KO mice and compound 22 on stereotypic counts activity. […] The sum of stereotypic counts was assessed over 60 min after the injection of amphetamine and compound 22 in WT (solid bars) or TAAR1-KO mice (spotted bars). […] The sum of stereotypic counts was assessed over 60 min following the injection in WT (solid bars) or TAAR1-KO mice (dotted bars). […]

Assay [5] has as its system TAAR1-KO mice. Nature of the assay: Stereotypic counts, co-injection with cocaine, TAAR1-KO mice. In kind it is in vivo. The following applies: 5, 15 and 25 mg/kg co-injected with cocaine 10 mg/kg. Here is the method:
as §1, with “Following the habituation, the mice were removed from the al apparatus and injected with drugs (see below for administration) or vehicle and returned immediately to the locomotor chamber.” left out, “After the experiments, the animals were euthanized by cervical dislocation.” left out
as §2

In another assay the target is Dopamine Transporter (Homo sapiens, UniProt Q01959). Nature of the assay: PDSP binding, secondary screen. As for the experimental part:
(§3) This was achieved through the identification of potential pharmacological targets of compound 22 using the Psychoactive Drug Screening Program (PDSP) at University of North Carolina-Chapel-Hill. PDSP provides a platform for screening novel psychoactive compounds on human proteins expressed in the central nervous system in order to identify their biological target(s) ([Besnard et al., 2012]). Binding studies were done on 47 targets at a single dose of compound 22 (10 μM; Supplementary Table S1). This primary screen yielded a total of 5 hits for compound 22 (Table 2). These hits were the serotonin, dopamine, and norepinephrine transporters, as well as the sigma 1 and sigma 2 receptors.

In assay [6] the target is Norepinephrine Transporter (Homo sapiens, UniProt P23975). In words: PDSP binding, secondary screen. As for the experimental part: as §3
Norepinephrine Transporter, sequence (P23975 whole entry): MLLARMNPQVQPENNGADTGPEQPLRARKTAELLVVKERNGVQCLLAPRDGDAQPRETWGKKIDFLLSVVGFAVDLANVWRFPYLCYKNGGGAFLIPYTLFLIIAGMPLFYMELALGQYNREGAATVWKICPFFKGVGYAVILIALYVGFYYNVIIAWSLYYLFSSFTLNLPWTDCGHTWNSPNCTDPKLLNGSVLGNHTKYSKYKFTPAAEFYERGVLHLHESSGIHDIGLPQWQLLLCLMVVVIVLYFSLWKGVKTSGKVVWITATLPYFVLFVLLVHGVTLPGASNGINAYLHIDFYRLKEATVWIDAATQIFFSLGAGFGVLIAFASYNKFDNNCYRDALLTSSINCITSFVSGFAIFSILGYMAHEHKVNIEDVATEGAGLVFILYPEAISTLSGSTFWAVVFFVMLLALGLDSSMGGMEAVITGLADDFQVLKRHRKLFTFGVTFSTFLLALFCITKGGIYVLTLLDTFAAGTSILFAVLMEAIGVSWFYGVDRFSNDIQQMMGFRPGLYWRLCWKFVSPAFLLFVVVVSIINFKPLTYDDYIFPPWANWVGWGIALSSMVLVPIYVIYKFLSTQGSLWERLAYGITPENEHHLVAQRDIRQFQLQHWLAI
The target of another assay is Serotonin Transporter (Homo sapiens, UniProt P31645). In words: PDSP binding, secondary screen. Here is the method: as §3
Serotonin Transporter, sequence (P31645 whole entry): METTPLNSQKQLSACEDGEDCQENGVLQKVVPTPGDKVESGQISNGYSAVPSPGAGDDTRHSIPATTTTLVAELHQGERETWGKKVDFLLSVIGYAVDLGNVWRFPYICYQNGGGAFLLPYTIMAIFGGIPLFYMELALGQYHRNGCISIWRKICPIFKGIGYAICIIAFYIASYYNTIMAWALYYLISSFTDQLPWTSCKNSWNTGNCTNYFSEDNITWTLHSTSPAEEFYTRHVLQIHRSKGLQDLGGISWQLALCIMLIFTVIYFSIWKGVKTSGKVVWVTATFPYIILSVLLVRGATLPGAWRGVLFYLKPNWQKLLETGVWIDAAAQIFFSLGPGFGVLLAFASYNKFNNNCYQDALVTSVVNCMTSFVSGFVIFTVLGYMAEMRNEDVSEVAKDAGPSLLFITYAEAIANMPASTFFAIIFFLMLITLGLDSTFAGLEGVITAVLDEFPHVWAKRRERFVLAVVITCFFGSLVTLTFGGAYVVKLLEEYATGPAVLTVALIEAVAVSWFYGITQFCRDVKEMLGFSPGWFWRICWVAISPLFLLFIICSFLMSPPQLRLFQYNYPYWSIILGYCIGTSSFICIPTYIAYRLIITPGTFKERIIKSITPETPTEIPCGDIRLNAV

Dopamine Transporter, sequence (Q01959 whole entry): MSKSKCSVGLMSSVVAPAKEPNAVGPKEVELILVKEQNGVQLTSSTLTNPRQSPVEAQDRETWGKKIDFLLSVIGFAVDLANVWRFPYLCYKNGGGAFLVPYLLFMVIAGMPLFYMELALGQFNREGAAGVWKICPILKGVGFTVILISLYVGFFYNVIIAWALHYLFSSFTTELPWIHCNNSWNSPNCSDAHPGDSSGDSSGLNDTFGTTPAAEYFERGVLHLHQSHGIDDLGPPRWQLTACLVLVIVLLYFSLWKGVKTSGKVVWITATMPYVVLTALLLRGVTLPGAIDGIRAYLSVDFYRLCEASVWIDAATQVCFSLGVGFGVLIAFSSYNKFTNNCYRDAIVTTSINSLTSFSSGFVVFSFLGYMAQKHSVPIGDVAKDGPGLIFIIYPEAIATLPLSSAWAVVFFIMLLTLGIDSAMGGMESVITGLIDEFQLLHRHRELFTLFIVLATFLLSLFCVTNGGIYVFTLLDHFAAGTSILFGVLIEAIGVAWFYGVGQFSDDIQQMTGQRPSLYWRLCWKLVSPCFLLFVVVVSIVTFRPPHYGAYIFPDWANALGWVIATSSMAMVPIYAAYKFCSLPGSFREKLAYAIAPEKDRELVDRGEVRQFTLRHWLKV

Take `Clc1ccc(CNCc2ccc(Cn3cncn3)cc2)c(Cl)c1` [compound 22]: the “increase in cocaine-induced locomotor activity” value is 77% with C57BL/6J mice [1] (5 mg/kg i.p. co-injected with cocaine 10 mg/kg, p = 0.03); 84% in the assay with C57BL/6J mice [1] (15 mg/kg i.p. co-injected with cocaine 10 mg/kg, p = 0.02); 124% in the assay on C57BL/6J mice [1] (25 mg/kg i.p. co-injected with cocaine 10 mg/kg, p = 0.003). In addition, the stereotypic counts entry in the assay with C57BL/6J mice [2] is reported as “increase in stereotypic counts”; in the assay on TAAR1-KO mice [4] it was “statistically significant increase in stereotypic counts”; in the assay with TAAR1-KO mice [5] it was “significant increases in stereotypic counts”. In assay [3], the “potentiation of amphetamine locomotor response” value was 44%. Moreover, the figures for the inhibition constant Ki (on Dopamine Transporter; in assay [6]; on Serotonin Transporter) were 1050 nM, 1900 nM and 1800 nM, respectively.

(Values after article PMC6131539, “Behavioral Effects of a Potential Novel TAAR1 Antagonist” (Frontiers in Pharmacology, 2018).)
